Laboratory results reported in patent US8329416B2, “Stabilized standards for busulfan immunoassay” (Saladax Biomedical Inc., priority 2008, dated 2012).
Read-outs that look alike come from different tables or passages of the source. One block for each compound: values may come before it.

Assays:
antibody to busulfan = assay: direct competitive ELISA for busulfan (busulfan-HRP conjugate, antibody-coated plate); type: binding
Method: For the purpose of determining amide of formula II equivalents to busulfan of formula I and assaying busulfan with the amide standards by Enzyme-Linked Immunosorbent Assay (ELISA) method, polystyrene microtiter plates optimized for protein binding and containing 96 well per plate were used. Each well was coated with an antibody to busulfan produced as described in U.S. Pat. No. 7,238,024 Example 7, by adding 100 μL of antibody at 7.5 μg/mL in 0.05M sodium bicarbonate, pH=9.6 and then were blocked with 400 μL of 5% sucrose, 0.2% sodium caseinate solution for 30 minutes at room temperature. After removal of the post-coat solution the plates dried at 37° C. overnight.
The cross-reactivity of the amide was determined in a direct competitive Enzyme-Linked Immunosorbent Assay (ELISA) for busulfan. This method for measuring busulfan concentrations was performed with the microtiter plates that were sensitized with busulfan antibody described in Example 3. The amide stock solution at 6 mg/mL DMF was serially diluted 5000 ng/mL and 500 ng/mL in a buffer comprising 0.02 M sodium phosphate, 0.15 M NaCl, 0.1% BSA, 0.01% Thimerosal, pH 7.2. To perform the assay 30 μL of busulfan standards from Example 1, and 30 μL of amide of formula II dilutions were pre-diluted in a 96-well plate by the addition of 180 μL of sample pre-dilution buffer consisting of 0.02 M sodium phosphate, 0.15 M NaCl, 0.5% Dextran Sulfate, 0.01% Thimerosal, pH 7.2. 50 μL of all prediluted samples were added to the antibody coated microtiter plate of Example 3. After addition of the samples 50 μL of a busulfan-HRP conjugate at 100 ng/mL in a buffer comprising to 0.02 M sodium phosphate, 0.15 M NaCl, 0.2% BSA, 0.1% ANS (8-anilino-1-naphthalene sulfonic acid), 15 ppm ProClin® Preservative 300 was added. During the following 10 minute incubation (R.T., with shaking) there is a competition between sample (busulfan or amide) and busulfan-HRP for binding with the antibody in the well. Following this incubation the wells of the plate were washed three times with 0.02 M TRIS, 0.9% NaCl, 0.5% polyethylene glycol sorbitan monooleate TWEEN® 80 and 0.001% Thimerosal, pH 7.8 to remove any material that was not bound. To detect the amount of busulfan-HRP bound to the busulfan antibody in the wells, 100 μL of TMB (TMB Liquid Substrate) a substrate for HRP was added. To develop a measurable color in the wells there was a 10 second incubation (R.T., with shaking). Following the incubation 50 μL of stop solution comprising 1.5% sodium fluoride in di H2O was added to each well to stop the color development and after 10 seconds of shaking the absorbance was determined at 650 nm with a 96-well plate reader. The amount of busulfan-HRP in a well was proportional to the absorbance measured and inversely proportional to the amount of busulfan of formulated or amide of formulated in the sample. The absorbance of the color in the wells containing busulfan was compared to that with no busulfan analyte and a standard curve was generated. […] The cross-reactivity was used to determine the concentration of amide necessary to produce a calibration curve equivalent to that of busulfan (Example 6).
Using the busulfan antibody plates (Example 3) in a direct competitive Enzyme-Linked Immunosorbent Assay (ELISA) for busulfan described in Example 4, the GC-MS verified busulfan calibrators (Example 1) were used to generate a curve from 75 ng/mL to 2000 ng/mL and the amide calibrators were read off this standard curve as unknown samples. […] The X axis represents the verified busulfan concentration and the Y axis is the amide standards expressed as busulfan equivalence factor (amide concentration value x 0.107=busulfan equivalence factor e.g. 1410 ng/mL amide x 0.107=150 ng/mL busulfan equivalence).

[1] = stability tests of amide of formula II standards in solution; type: physicochemical; conditions: for time stable: solutions 590 ng/ml to 4720 ng/ml
[2] = tested on: antibodies specific for busulfan; assay: busulfan immunoassay of U.S. Pat. No. 7,148,024; type: binding; conditions: across the entire dose response curve
Source text: In accordance with a preferred embodiment of this invention, a competitive assay is provided utilizing the reagents and procedure disclosed in U.S. Pat. No. 7,148,024, whose disclosure is incorporated by reference In this preferred procedure, the preferred procedure as set forth in U.S. Pat. No. 7,148,024, utilized in its method antibodies produced from conjugates of an immunogenic polyamine polymer with a compound of the formula III-A:
[drawing 4] • wherein A′ is lower alkylene or lower alkenylene; • X′, Y, X, p and z are as above or mixtures thereof.
The fact that known concentrations of the amide of formula II can be calibrated with known concentrations of busulfan by means of a calibration assay can be seen from FIG. 3. […] These measured results are plotted against their relative concentrations. […] The amount or concentration of busulfan can be determined from the measured amount or concentration standards containing the amide of formula II by multiplying the measured results obtained from these amide standards by previously determined calibration factor which in the case of FIG. 3 is 0.107. In this manner one obtains the amount or concentration of busulfan in the samples based on the measured results with respect to the amide.

[3] = decomposition of busulfan standards in aqueous solution over time; type: physicochemical; conditions: FIG. 1
Method: In FIG. 1 a plurality of aqueous solutions of busulfan having varying concentrations of 100 ng/ml, 600 ng/ml, and 1200 ng/ml are incubated at room temperature. […] At room temperature for 5 days, more than 60% of the busulfan is decomposed.

[4] = cited from earlier work
[5] = tested on: antibodies specific for busulfan; conditions: antibodies from immunogens of formulae III-A and III-B; cited from earlier work

time stable ([1]; 4° C., FIG. 2): at least 4 weeks | time stable ([1]; 45° C., FIG. 2): at least 4 weeks | decomposition on storage ([1]; stored at 4° C. and 45° C. for at least 4 weeks, FIG. 2): no decomposition | storage of amide solutions without significant deterioration ([1]; without any special precautions): more than one year
Structure (SMILES): CS(=O)(=O)NCCCCNS(C)(=O)=O [amide of formula II]
calibration factor (busulfan equivalence factor) (antibody to busulfan; FIG. 3, amide concentration x factor = busulfan equivalence): 0.107 | busulfan calibrator concentration giving the same absorbance (antibody to busulfan; amide at 705 ng/mL, FIG. 3): 75 ng/mL | busulfan calibrator concentration giving the same absorbance (antibody to busulfan; amide at 1410 ng/mL, FIG. 3): 150 ng/mL | busulfan calibrator concentration giving the same absorbance (antibody to busulfan; amide at 2820 ng/mL, FIG. 3): 300 ng/mL | busulfan calibrator concentration giving the same absorbance (antibody to busulfan; amide at 5640 ng/mL, FIG. 3): 600 ng/mL | busulfan calibrator concentration giving the same absorbance (antibody to busulfan; amide at 11280 ng/mL, FIG. 3): 200 ng/mL | busulfan calibrator concentration giving the same absorbance (antibody to busulfan; amide at 18800 ng/mL, FIG. 3): 2000 ng/mL | cross-reactivity (antibody to busulfan; recovery compared to busulfan standard, 5000 ng/mL amide): 10.7% | relative cross reactivity as compared to busulfan [2]: 17.5%

half-life ([3]; aqueous solution, 37° C., aqueous solutions 100, 600, 1200 ng/ml): 14 h | busulfan decomposed ([3]; room temperature for 5 days): more than 60%
Structure (SMILES): CS(=O)(=O)OCCCCOS(C)(=O)=O [busulfan]
decomposition of busulfan calibrator ([4]; 4° C., calibrator matrix spiked with busulfan): decomposes within a day | busulfan decomposed ([4]; room temperature for 5 days): more than 60%

Structure (SMILES): O=S1(=O)CCC(O)C1 (centres unmarked) [tetrahydrothiophene-3-ol-1,1-dioxide]
reaction or binding of the busulfan antibodies with blocking metabolites [5]: do not substantially react with or bind to

Structure (SMILES): C1CCSC1 [tetrahydrothiophene]
reaction or binding of the busulfan antibodies with blocking metabolites [5]: do not substantially react with or bind to

Structure (SMILES): O=S1(=O)CCCC1 [tetramethylene sulfone]
reaction or binding of the busulfan antibodies with blocking metabolites [5]: do not substantially react with or bind to
